From patent US20250304567A1, “PYRROLIDIONE DERIVATIVES AS INHIBITORS OF NF KAPPA B INDUCING KINASE” (priority 2022, published 2025)
pIC50: −log10 of the molar value. Where two headings read alike, the source gives them in different places.

Key:
[1] = target: Recombinant Human NF-kappaB-Inducing Kinase (NIK/MAP3K14) (Homo sapiens, UniProt Q99558); assay: Inhibition of auto-phosphorylation of recombinant human NIK/MAP3K14 activity (AlphaScreen); format: biochemical; conditions: 5 μM ATP, 1 nM NIK, average if tested more than once
Method in brief: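 GST-tagged NIK (1 nM) auto-phosphorylation with 5 μM ATP, 2 h at 25 °C, pH 7.5 Tris buffer, 0.7% DMSO; stopped with anti-phospho-IKK Ser176/180 antibody and read by AlphaScreen. Signal normalized to full-activity and no-enzyme/no-ATP controls; IC50 from sigmoidal fit of % inhibition vs log concentration.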

[2] = test system: p-IKKa levels in L363 (NIK translocated multiple myeloma) cells; assay: Effect of compounds on p-IKKa levels in L363 (NIK translocated multiple myeloma) cells (AlphaLISA SureFire Ultra p-IKKa Ser176/180); format: cell-based, human; conditions: average if tested more than once, read-out: Assay 2 IC50
Method in brief: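 L363 multiple myeloma cells, BAFF-stimulated overnight (250 ng/ml), then 6 h at 37 °C with compound (11-point 1:3 series, 0.3% DMSO) plus BAFF and 10 μM MG132. p-IKKa Ser176/180 read by AlphaLISA SureFire Ultra; IC50 from sigmoidal fit normalised to stimulated and unstimulated controls.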

[3] = Homo sapiens, L-363, p-IKKa levels in L363 cells

Sequence of Recombinant Human NF-kappaB-Inducing Kinase (NIK/MAP3K14) (Q99558 whole entry): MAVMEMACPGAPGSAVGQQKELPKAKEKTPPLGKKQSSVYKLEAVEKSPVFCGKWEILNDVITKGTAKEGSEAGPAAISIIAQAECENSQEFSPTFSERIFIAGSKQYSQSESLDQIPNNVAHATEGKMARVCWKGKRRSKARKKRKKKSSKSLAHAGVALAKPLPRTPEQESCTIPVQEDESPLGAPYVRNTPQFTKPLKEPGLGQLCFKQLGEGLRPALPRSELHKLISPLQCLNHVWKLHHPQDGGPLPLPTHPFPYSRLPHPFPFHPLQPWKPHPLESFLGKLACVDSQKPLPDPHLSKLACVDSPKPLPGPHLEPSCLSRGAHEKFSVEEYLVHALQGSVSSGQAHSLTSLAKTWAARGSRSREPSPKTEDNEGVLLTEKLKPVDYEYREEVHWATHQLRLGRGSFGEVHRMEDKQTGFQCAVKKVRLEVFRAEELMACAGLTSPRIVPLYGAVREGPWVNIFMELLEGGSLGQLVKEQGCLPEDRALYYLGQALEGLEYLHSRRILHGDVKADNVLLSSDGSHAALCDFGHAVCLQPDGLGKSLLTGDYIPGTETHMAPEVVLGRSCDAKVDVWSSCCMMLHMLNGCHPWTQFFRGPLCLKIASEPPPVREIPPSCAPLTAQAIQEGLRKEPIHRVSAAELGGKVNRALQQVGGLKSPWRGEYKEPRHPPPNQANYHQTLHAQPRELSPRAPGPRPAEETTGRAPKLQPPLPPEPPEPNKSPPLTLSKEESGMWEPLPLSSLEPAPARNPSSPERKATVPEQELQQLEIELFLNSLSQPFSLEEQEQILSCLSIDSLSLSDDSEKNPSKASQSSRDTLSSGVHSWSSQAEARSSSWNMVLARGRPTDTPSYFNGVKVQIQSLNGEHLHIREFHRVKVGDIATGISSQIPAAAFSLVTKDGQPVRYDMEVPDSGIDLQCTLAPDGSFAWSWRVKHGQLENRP

SMILES | pIC50 [1] | pIC50 [2, 3] | pIC50 ([2]; p-IKKa levels in L363 cells)
CC(Nc1nccc(-c2nc(-c3cc([C@]4(O)CCN(C)C4=O)ccn3)cs2)n1)c1cnn(C)c1 (single isomer, unassigned) [Example 158, (R)-3-hydroxy-1-methyl-3-(2-(2-(2-(((R,S)-1-(1-methyl-1H-pyrazol-4-yl)ethyl)amino)pyrimidin-4-yl)thiazol-4-yl)pyrrolid-4-yl)pyrrolidine-2-one or (S)-3-hydroxy-1-methyl-3-(2-(2-(2-(((R,S)-1-(1-methyl-1H-pyrazol-4-yl)ethyl)amino)pyrimidin-4-yl)thiazol-4-yl)pyrrolid-4-yl)pyrrolidine-2-one] | > 7.00 | 6.30 to 7.00 | –
CN1C[C@H](Nc2nccc(-c3csc(-c4cccc([C@]5(O)CCN(C)C5=O)c4)n3)n2)CC1=O (single isomer, unassigned) [Example 234] | 6.30 to 7.00 | < 6.30 | –
CN1C[C@@H](Nc2nccc(-c3csc(-c4cccc([C@]5(O)CCN(C)C5=O)c4)n3)n2)CC1=O (single isomer, unassigned) [Example 235] | > 7.00 | < 6.30 | –
C[C@@H](Nc1nccc(-c2csc(-c3cccc([C@]4(O)CCN(C)C4=O)c3)n2)n1)c1cn[nH]c1 (single isomer, unassigned) [Example 293] | > 7.00 | – | 6.30 to 7.00
C[C@H](Nc1nccc(-c2csc(-c3cccc([C@]4(O)CCN(C)C4=O)c3)n2)n1)c1cn[nH]c1 (single isomer, unassigned) [Example 294] | > 7.00 | – | < 6.30
CN1CC[C@@](O)(c2cccc(-c3nc(-c4ccnc(Nc5ccn(C)n5)n4)co3)c2)C1=O [Example 1, (R)-3-hydroxy-1-methyl-3-(3-(4-(2-((1-methyl-1H-pyrazol-3-yl)amino)pyrimidin-4-yl)oxazol-2-yl)phenyl)pyrrolidin-2-one] | > 7.00 | 6.30 to 7.00 | –
CN1CC[C@@](O)(c2cccc(-c3ccn(-c4ccnc(Nc5ccn(C)n5)n4)n3)c2)C1=O [Example 2, (R)-3-hydroxy-1-methyl-3-(3-(1-(2-((1-methyl-1H-pyrazol-3-yl)amino)pyrimidin-4-yl)-1H-pyrazol-3-yl)phenyl)pyrrolidin-2-one] | > 7.00 | 6.30 to 7.00 | –
CN1CC[C@@](O)(c2cccc(-c3csc(-c4ccnc(Nc5ccn(C)n5)n4)n3)c2)C1=O [Example 3, (R)-3-hydroxy-1-methyl-3-(3-(2-(2-((1-methyl-1H-pyrazol-3-yl)amino)pyrimidin-4-yl)thiazol-4-yl)phenyl)pyrrolidin-2-one] | > 7.00 | > 7.00 | –
CN1CC[C@@](O)(c2cccc(-c3coc(-c4ccnc(Nc5ccn(C)n5)n4)n3)c2)C1=O [Example 4, (R)-3-hydroxy-1-methyl-3-(3-(2-(2-((1-methyl-1H-pyrazol-3-yl)amino)pyrimidin-4-yl)oxazol-4-yl)phenyl)pyrrolidin-2-one] | > 7.00 | < 6.30 | –
CN1CC[C@@](O)(c2cccc(-c3csc(-c4ccnc(Nc5ccnn5C)n4)n3)c2)C1=O [Example 5, (R)-3-hydroxy-1-methyl-3-(3-(2-(2-((1-methyl-1H-pyrazol-5-yl)amino)pyrimidin-4-yl)thiazol-4-yl)phenyl)pyrrolidin-2-one] | > 7.00 | > 7.00 | –
CN1CC[C@@](O)(c2cccc(-c3nc(-c4ccnc(N)n4)cs3)c2)C1=O [Example 6, (R)-3-(3-(4-(2-Aminopyrimidin-4-yl)thiazol-2-yl)phenyl)-3-hydroxy-1-methylpyrrolidin-2-one] | 6.30 to 7.00 | < 6.30 | –
COc1ncccc1Nc1nccc(-c2csc(-c3cccc([C@]4(O)CCN(C)C4=O)c3)n2)n1 [Example 7, (R)-3-Hydroxy-3-(3-(4-(2-((2-methoxypyridin-3-yl)amino)pyrimidin-4-yl)thiazol-2-yl)phenyl)-1-methylpyrrolidin-2-one] | > 7.00 | 6.30 to 7.00 | –
Cc1ncc(C#N)cc1Nc1nccc(-c2csc(-c3cccc([C@]4(O)CCN(C)C4=O)c3)n2)n1 [Example 8, (R)-5-((4-(2-(3-(3-Hydroxy-1-methyl-2-oxopyrrolidin-3-yl)phenyl)thiazol-4-yl)pyrimidin-2-yl)amino)-6-methylnicotinonitrile] | > 7.00 | 6.30 to 7.00 | –
CN1CC[C@@](O)(c2cccc(-c3nc(-c4ccnc(Nc5cn(CC(F)F)nc5OC5CC5)n4)cs3)c2)C1=O [Example 9, (R)-3-(3-(4-(2-((3-Cyclopropoxy-1-(2,2-difluoroethyl)-1H-pyrazol-4-yl)amino)pyrimidin-4-yl)thiazol-2-yl)phenyl)-3-hydroxy-1-methylpyrrolidin-2-one] | > 7.00 | > 7.00 | –
CNC(=O)c1ccc(C)c(Nc2nccc(-c3csc(-c4cccc([C@]5(O)CCN(C)C5=O)c4)n3)n2)c1 [Example 10, (R)-3-((4-(2-(3-(3-Hydroxy-1-methyl-2-oxopyrrolidin-3-yl)phenyl)thiazol-4-yl)pyrimidin-2-yl)amino)-N,4-dimethylbenzamide] | > 7.00 | 6.30 to 7.00 | –
COCCOc1nn(CC(F)F)cc1Nc1nccc(-c2csc(-c3cccc([C@]4(O)CCN(C)C4=O)c3)n2)n1 [Example 11, (R)-3-(3-(4-(2-((1-(2,2-Difluoroethyl)-3-(2-methoxyethoxy)-1H-pyrazol-4-yl)amino)pyrimidin-4-yl)thiazol-2-yl)phenyl)-3-hydroxy-1-methylpyrrolidin-2-one] | > 7.00 | > 7.00 | –
CNC(=O)c1cc(Nc2nccc(-c3csc(-c4cccc([C@]5(O)CCN(C)C5=O)c4)n3)n2)c(OC2CC2)cc1F [Example 12, (R)-4-Cyclopropoxy-2-fluoro-5-((4-(2-(3-(3-hydroxy-1-methyl-2-oxopyrrolidin-3-yl)phenyl)thiazol-4-yl)pyrimidin-2-yl)amino)-N-methylbenzamide] | > 7.00 | 6.30 to 7.00 | –
CNC(=O)c1cc(Nc2nccc(-c3csc(-c4cccc([C@]5(O)CCN(C)C5=O)c4)n3)n2)n(CC(C)C)n1 [Example 13, (R)-5-((4-(2-(3-(3-Hydroxy-1-methyl-2-oxopyrrolidin-3-yl)phenyl)thiazol-4-yl)pyrimidin-2-yl)amino)-1-isobutyl-N-methyl-1H-pyrazole-3-carboxamide] | > 7.00 | 6.30 to 7.00 | –
Cc1cc(Nc2nccc(-c3csc(-c4cccc([C@]5(O)CCN(C)C5=O)c4)n3)n2)c(=O)n(C)c1 [Example 14, (R)-3-((4-(2-(3-(3-Hydroxy-1-methyl-2-oxopyrrolidin-3-yl)phenyl)thiazol-4-yl)pyrimidin-2-yl)amino)-1,5-dimethylpyridin-2(1H)-one] | > 7.00 | 6.30 to 7.00 | –
CNC(=O)c1cc(Nc2nccc(-c3csc(-c4cccc([C@]5(O)CCN(C)C5=O)c4)n3)n2)n(C2CCCC2)n1 [Example 15, (R)-1-Cyclopentyl-5-((4-(2-(3-(3-hydroxy-1-methyl-2-oxopyrrolidin-3-yl)phenyl)thiazol-4-yl)pyrimidin-2-yl)amino)-N-methyl-1H-pyrazole-3-carboxamide] | > 7.00 | 6.30 to 7.00 | –
Cc1cnc(Nc2ccn(C)n2)nc1-c1csc(-c2cccc([C@]3(O)CCN(C)C3=O)c2)n1 [Example 16, (R)-3-Hydroxy-1-methyl-3-(3-(4-(5-methyl-2-((1-methyl-1H-pyrazol-3-yl)amino)pyrimidin-4-yl)thiazol-2-yl)phenyl)pyrrolidin-2-one] | 6.30 to 7.00 | < 6.30 | –
Cc1sc(-c2cccc([C@]3(O)CCN(C)C3=O)c2)nc1-c1ccnc(Nc2ccn(C)n2)n1 [Example 17, (R)-3-Hydroxy-1-methyl-3-(3-(5-methyl-4-(2-((1-methyl-1H-pyrazol-3-yl)amino)pyrimidin-4-yl)thiazol-2-yl)phenyl)pyrrolidin-2-one] | > 7.00 | < 6.30 | –
CN1CC[C@@](O)(c2cccc(-c3csc(-c4ccnc(Nc5cnn(CC6CC6)c5)n4)n3)c2)C1=O [Example 20, (R)-3-(3-(2-(2-((1-(cyclopropylmethyl)-1H-pyrazol-4-yl)amino)pyrimidin-4-yl)thiazol-4-yl)phenyl)-3-hydroxy-1-methylpyrrolidin-2-one] | 6.30 to 7.00 | < 6.30 | –
CN1CC[C@@](O)(c2cccc(-c3cccc(-c4ccnc(Nc5ccn(C)n5)n4)n3)c2)C1=O [Example 22, (R)-3-Hydroxy-1-methyl-3-(3-(6-(2-((1-methyl-1H-pyrazol-3-yl)amino)pyrimidin-4-yl)pyridin-2-yl)phenyl)pyrrolidin-2-one] | < 6.30 | < 6.30 | –
CN1CC[C@@](O)(c2cccc(-c3cccc(-c4ccnc(NCCCO)n4)n3)c2)C1=O [Example 23, (R)-3-Hydroxy-3-(3-(6-(2-((3-hydroxypropyl)amino)pyrimidin-4-yl)pyridin-2-yl)phenyl)-1-methylpyrrolidin-2-one] | < 6.30 | < 6.30 | –
Cc1cc(Nc2nccc(-c3csc(-c4cccc([C@]5(O)CCN(C)C5=O)c4)n3)n2)ccn1 [Example 43, (R)-3-Hydroxy-1-methyl-3-(3-(4-(2-((2-methylpyridin-4-yl)amino)pyrimidin-4-yl)thiazol-2-yl)phenyl)pyrrolidin-2-one] | > 7.00 | 6.30 to 7.00 | –
CN1CC[C@@](O)(c2cccc(-c3csc(-c4ccnc(Nc5cnn(C(CO)CO)c5)n4)n3)c2)C1=O [Example 44, (R)-3-(3-(2-(2-((1-(1,3-dihydroxypropan-2-yl)-1H-pyrazol-4-yl)amino)pyrimidin-4-yl)thiazol-4-yl)phenyl)-3-hydroxy-1-methylpyrrolidin-2-one] | > 7.00 | < 6.30 | –
